According to patent publication US20070021509A1, “Phosphate transport inhibitors” (priority 2001, published 2007):
pIC50: −log10 of the molar value. Where two headings read alike, the source gives them in different places. Blank lines part the entries; values can stand above or below the molecule they belong to.

Test system: phosphate uptake by rabbit intestinal Brush Border Membrane Vesicles (BBMV)
Test: 33PO4 uptake in rabbit intestinal BBMV (HTS), phosphate transporter inhibition in vitro
Type: biochemical
Conditions: for % Inhib. At 100 μM: Table 3, 100 μM compound; for pIC50: read-out: IC50
How it was run: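 BBMV from duodenal mucosa of male New Zealand White rabbits, diluted to about 0.5-2.0 mg/mL protein. Uptake buffers carried 33PO4 at 200,000 CPM/19 μL. Controls: Na uptake buffer (max), plus 100 μM KH2PO4 pH 7.4 (mid), K uptake buffer (min).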

Structure (SMILES): O=C1OCc2ccc(NS(=O)(=O)c3ccc(C(F)(F)F)cc3)cc21 [Compound 161]
- % Inhib. At 100 μM: 29%

Structure (SMILES): CCCCCCCc1ccc(C(=O)Nc2ccc(Br)cc2P(=O)(OCC)OCC)cc1 [Compound 247]
- % Inhib. at 100 μM (Table 8, 100 μM compound): 53%

- pIC50 (Table 2, phosphate uptake): 2.82 to 3.00
Structure (SMILES): NCCCCCCNC(=O)c1cc(Br)ccc1NS(=O)(=O)c1ccc(Cl)c([N+](=O)[O-])c1 [Compound 119]

Structure (SMILES): Cc1cccc(CS(=O)(=O)c2ccc(Cl)cc2)c1F [Compound 282]
- % Inhib. at 100 μM (Table 12, 100 μM compound): 53%

- pIC50 (Table 4, phosphate uptake): < 2.82
Structure (SMILES): CC(NC(=O)Nc1ccc(Br)cc1P(=O)(O)O)c1cccc2ccccc12 (stereo not drawn) [Compound 209]

- pIC50 (Table 2, phosphate uptake): < 2.82
Structure (SMILES): O=C(Nc1ccc(Cl)cc1)c1cc(Br)ccc1NS(=O)(=O)c1ccc(Cl)cc1 [Compound 97]

- pIC50 (Table 2, phosphate uptake): 3.30 to 4.00
Structure (SMILES): O=C(Nc1ccccc1-n1cccc1)c1cc(Br)ccc1NS(=O)(=O)c1ccc(OC(F)(F)F)cc1 [Compound 68]

- pIC50 (Table 1, phosphate uptake): 4.00 to 4.29
Structure (SMILES): O=C(O)c1cc(Br)ccc1NS(=O)(=O)c1ccc(-c2ccccc2)cc1 [Compound 8]

- pIC50 (Table 4, phosphate uptake): 3.30 to 4.00
Structure (SMILES): O=C(Nc1cc(Cl)c(Cl)cc1Cl)Nc1ccc(Br)cc1P(=O)(O)O [Compound 193]

- pIC50 (Table 1, phosphate uptake): 3.30 to 4.00
Structure (SMILES): Cc1ccc(S(=O)(=O)Nc2ccc(Br)cc2C(=O)O)cc1[N+](=O)[O-] [Compound 20]

- pIC50 (Table 2, phosphate uptake): < 2.82
Structure (SMILES): O=C(Nc1cccc(Cl)c1)c1cc(Br)ccc1NS(=O)(=O)c1ccc(Cl)cc1 [Compound 95]

- pIC50 (Table 1, phosphate uptake): 4.00 to 4.29
Structure (SMILES): O=C(O)c1cc(Br)ccc1NS(=O)(=O)c1ccc(C(F)(F)F)cc1 [Compound 7]

- pIC50 (Table 1, phosphate uptake): 3.30 to 4.00
Structure (SMILES): O=C(O)c1cc(Br)ccc1NS(=O)(=O)c1ccccc1C(F)(F)F [Compound 26]

Structure (SMILES): O=S(=O)(c1ccc(Cl)cc1)N1CCCc2ccccc21 [Compound 139]
- % Inhib. At 100 μM: 70%

- pIC50 (Table 2, phosphate uptake): 4.00 to 4.29
Structure (SMILES): Cc1ccc(NC(=O)c2cc(Br)ccc2NS(=O)(=O)c2ccc(OC(F)(F)F)cc2)cc1 [Compound 57]

- pIC50 (Table 2, phosphate uptake): 3.30 to 4.00
Structure (SMILES): COc1ccccc1NC(=O)c1cc(Br)ccc1NS(=O)(=O)c1ccc(OC)c([N+](=O)[O-])c1 [Compound 106]

Structure (SMILES): O=S(=O)(c1ccccc1)n1ccc2ccccc21 [Compound 135]
- % Inhib. At 100 μM: 76%

- pIC50 (Table 2, phosphate uptake): > 4.30
Structure (SMILES): O=C(NCc1ccccc1C(F)(F)F)c1cc(Br)ccc1NS(=O)(=O)c1ccc(OC(F)(F)F)cc1 [Compound 55]

- pIC50 (Table 2, phosphate uptake): 4.00 to 4.29
Structure (SMILES): O=C(Nc1ccc(Cl)c(Cl)c1)c1cc(Br)ccc1NS(=O)(=O)c1ccc(OC(F)(F)F)cc1 [Compound 59]

Structure (SMILES): CCOC(=O)c1cc2cccc(NS(=O)(=O)c3ccc(OC(F)(F)F)cc3)c2[nH]1 [Compound 137]
- % Inhib. At 100 μM: 74%

Structure (SMILES): O=C(Nc1cccc(C(F)(F)F)c1)Nc1cccc(Cl)c1Cl [Compound 215]
- % Inhib. at 100 μM (Table 5, 100 μM compound): 96%

- pIC50 (Table 2, phosphate uptake): 4.00 to 4.29
Structure (SMILES): O=C(Nc1ccccc1Cl)c1cc(Br)ccc1NS(=O)(=O)c1ccc(Cl)cc1 [Compound 86]

Structure (SMILES): CCOP(=O)(OCC)c1cc(Br)ccc1NC(=O)Nc1cccc(C(F)(F)F)c1 [Compound 226]
- % Inhib. at 100 μM (Table 5, 100 μM compound): 77%

- pIC50 (Table 13, phosphate uptake): 3.00 to 3.30
Structure (SMILES): O=S(=O)(O)c1cc(NS(=O)(=O)c2ccc(-c3ccccc3)cc2)ccc1/C=C/c1ccc(NS(=O)(=O)c2ccc(-c3ccccc3)cc2)cc1S(=O)(=O)O [Compound 298]

- pIC50 (Table 4, phosphate uptake): 3.30 to 4.00
Structure (SMILES): O=C(Nc1ccc(Br)cc1P(=O)(O)O)Nc1cccc(Cl)c1Cl [Compound 187]

Structure (SMILES): Cc1ccc(S(=O)(=O)Cc2c(Cl)cccc2Cl)cc1 [Compound 281]
- % Inhib. at 100 μM (Table 12, 100 μM compound): 53%

- pIC50 (Table 1, phosphate uptake): < 2.82
Structure (SMILES): O=C(O)c1cc(Br)ccc1NS(=O)(=O)c1ccc(Cl)cc1 [Compound 43]

Structure (SMILES): O=S(=O)(Cc1c(Cl)cccc1Cl)c1cc(C(F)(F)F)cc(C(F)(F)F)c1 [Compound 283]
- % Inhib. at 100 μM (Table 12, 100 μM compound): 51%

Structure (SMILES): CN(C)c1ccc(NS(=O)(=O)c2cc(C(F)(F)F)cc(C(F)(F)F)c2)cc1 [Compound 130]
- % Inhib. At 100 μM: 81%

Structure (SMILES): CCOP(=O)(OCC)c1cc(Br)ccc1NC(=O)c1cc(F)c(Cl)cc1Cl [Compound 262]
- pIC50 (Table 10, phosphate uptake): 3.30 to 4.00

Structure (SMILES): CSc1ccc(NS(=O)(=O)c2ccc(OC(F)(F)F)cc2)cc1 [Compound 128]
- % Inhib. At 100 μM: 88%

- pIC50 (Table 2, phosphate uptake): 3.30 to 4.00
Structure (SMILES): O=C(Nc1ccccc1F)c1cc(Br)ccc1NS(=O)(=O)c1ccc(Cl)cc1 [Compound 88]

- pIC50 (Table 2, phosphate uptake): 3.30 to 4.00
Structure (SMILES): O=C(NC1CCCCC1)c1cc(Br)ccc1NS(=O)(=O)c1ccc(OC(F)(F)F)cc1 [Compound 75]

Structure (SMILES): CCOP(=O)(OCC)c1cc(Br)ccc1NC(=O)c1ccc(OC(F)(F)F)cc1 [Compound 259]
- pIC50 (Table 10, phosphate uptake): 3.30 to 4.00

- pIC50 (Table 1, phosphate uptake): < 2.82
Structure (SMILES): O=C(O)c1cc(Br)ccc1NS(=O)(=O)c1ccc(Cl)cc1 [Compound 39]

Structure (SMILES): O=C(Nc1cc(Cl)cc(Cl)c1)Nc1cccc(C(F)(F)F)c1 [Compound 217]
- % Inhib. at 100 μM (Table 5, 100 μM compound): 95%

Structure (SMILES): CCCCOc1ccc(C(=O)Nc2ccc(Br)cc2P(=O)(OCC)OCC)cc1 [Compound 246]
- % Inhib. at 100 μM (Table 8, 100 μM compound): 57%

Structure (SMILES): CCOP(=O)(OCC)c1cc(Br)ccc1NC(=O)c1ccc(OC(F)(F)F)cc1 [Compound 272]
- pIC50 (Table 10, phosphate uptake): < 2.82

- pIC50 (Table 10, phosphate uptake): 3.30 to 4.00
Structure (SMILES): COc1ccc(NC(=O)c2cc3ccc4c5ccccc5[nH]c4c3cc2O)cc1 [Compound 257]
